Data on one compound can be found in patent publication US20250049924A1, “Abuse-Deterrent Pharmaceutical Composition with Aversion Properties” (AARDVARK THERAPEUTICS INC., priority 2022, published 2025).

For series [1], the system named is bitter taste receptors in the oral cavity, including the tongue. The series can be described thus: volunteer snorting experiment with DA in saline (granules or neat powder). It is filed as in vivo, human. The method, then:
One brave co-inventor attempted to “snort” a formulation of DA in either a granule form having talc as an excipient as DA is provided in clinical trials (Aardvark Therapeutics, Inc phase 1 and 2 studies for obesity) for oral administration in a capsule designed to prevent DA material from exposure to bitter taste receptors in the oral cavity, including the tongue. In a first round of “dose escalation” of a saline having DA in granules starting around […] of DA (wherein a granule weighs about 0.1 mg including the talc based excipients) in the volume of liquid snorted, it took a dose of around 0.1 mg DA (10 granules). The three attempts were 1 granule, 5 granules and lastly 10 granules. […] This sensation peaked around 15-20 min, and lasted about an hour. Was certainly annoying and not pleasant.
In view of the results with a granule formulation of DA, the day before filing this patent application, the co-inventor volunteer tried the snorting experiment again, but this time, using neat DA that was a powder dissolved in saline. Just one “snort” was attempted of 1 mg of DA in saline. It should be noted that the completed clinical trials of DA used a dose of 200 mg of DA taken orally in a capsule that dissolves in the stomach, avoiding mouth exposure. The report from our volunteer indicated: “Just snorted 1.0 mg of ARD-101 [DA] API [active pharmaceutical ingredient] . . . OMG.
So terrible. […] Like with the granules, there is no immediate aversive sensation. Maybe around minute 7-8 after snorting dose, the bitterness became apparent, with peak effect starting around minute 10-15. […] Drinking water almost makes it worse!
It's been over 30 min since the snorting and the bitterness has hardly diminished. If I ate breakfast, I might have vomited already.
A later text read: “It's been almost 6 hours and I still taste it. Bleh.”

Series [2] in a line: systemic exposure of DA after oral administration (completed clinical trials and preclinical studies). The text has this:
This is in contrast to a controlled substance, such as an amphetamine, which is known to provide a bolus dose to the brain to provider a “high” experience for the drug abuser. This allows a drug abuser, snorting the disclosed formulation to experience a bolus dose of the controlled substance for a “high” while simultaneously, or shortly thereafter, experience a disgusting, revolting, vomit-inducing, sickening (but not life-threatening) massively unpleasant experience from the aversive agent, such as DA.
DB is commercially available but has not been developed for pharmaceutical use. However, DA has been used as an active pharmaceutical agent as a bitter receptor agonist, not as an aversive, in formulations that avoid oral cavity exposure.

Series [3] in a line: systemic (intravenous) administration of DA, NOAEL. It is filed as in vivo. The following applies: systemic administration (i.e., intravenous administration).
The next series has as its system rats. Nature of the series: animal toxicology studies, DA orally by gavage, behaviour. The following applies: oral gavage by less skilled technicians. It is filed as in vivo.
The mark [4] stands for this setting: DA granules in saline, around 0.1 mg DA (10 granules).
Setting [5] is: neat DA powder dissolved in saline, 1 mg, one snort.

As for `CC(=O)[O-].CC[N+](CC)(CC(=O)Nc1c(C)cccc1C)Cc1ccccc1` [DA, Denatonium acetate], in series [1] (DA granules (talc excipient) in saline, snorted, attempts of 1, 5 and 10 granules), the “dose of DA that it took for an effect in dose escalation” value is given as “about 0.1 mg”. In series [1] (setting [4]), the duration of sensation result is recorded as “about an hour”; the nausea or vomiting entry is reported as “did not elicit nausea or vomiting”; the sensation after snorting entry was “extremely bitter taste in the back of my throat and posterior portion of my tongue”; the “time of peak of sensation” value is 15 to 20 min. In series [1] (setting [4]), the “time to noticing the bitter taste” value was no more than 10 min. Further, the “effect compared with the granules” value in series [1] (neat DA 1 mg versus granules snorted before) was “significantly and measurably more disgusting”. Further, the “deterrence of snorting, volunteer's judgement” value in series [1] (neat DA powder dissolved in saline, 1 mg) is reported as “measurable deterrent to snorting”. Moreover, in series [1] (setting [5]), the sensation after snorting result was “extreme bitterness in the back of the throat and the posterior tongue”; the “start of peak effect” value is 10 to 15 min; the “time after snorting at which bitterness became apparent” value lay within 7 to 8 min; the “time after snorting at which it is still tasted” value is roughly 6 h. The “time since snorting at which bitterness has hardly diminished” value in series [1] (setting [5]) is listed as “over 30 min”. The “part of the dose administered found systemically” value in series [2] (oral administration) is given as “less than 1%”. In addition, in series [2] (oral exposure), the “pharmacokinetics, distribution after oral exposure” value was “substantially gut restricted”. Moreover, the “NOAEL (no adverse effect level)” value in series [3] is on record as “high”. The “behavior of the animals on gavage” value with rats was “highly aversive and desperate behavior”.
